{"source": "patent US20150374689A1", "about": "“Use of Levosimendan to Treat Left Ventricular Systolic Dysfunction in Patients Undergoing Cardiac Surgery Requiring Cardiopulmonary Bypass” (TENAX Therapeutics, Inc., priority 2014, published 2015)", "key": {"[1]": {"settings": "cited from earlier work; for formation of the metabolite: patients undergoing cardiac surgery"}, "[2]": {"tested_on": "patients with left ventricular systolic dysfunction undergoing cardiac surgery requiring cardiopulmonary bypass", "assay": "Double-blind, randomized, placebo-controlled clinical trial of levosimendan (Example 1)", "assay_type": "in vivo, human", "protocol": "A randomized, double-blind, placebo-controlled, multicenter study of levosimendan is conducted in subjects with pre-existing left ventricular systolic dysfunction (documented (i) LVEF≦25% in CABG surgery patients, or (ii) LVEF≦35% in CABG with aortic valve surgery patients, CABG with mitral valve surgery patients, or isolated mitral valve surgery patients) with or without heart failure (NYHA functional Class I-IV), undergoing (1) CABG surgery, (2) CABG with aortic valve surgery, (3) CABG with mitral valve surgery, or (4) isolated mitral valve surgery.\nAll patients are randomized with planned CPB. Approximately 760 subjects are enrolled in the study. Subjects are randomly assigned to receive either levosimendan or a matching placebo in a 1:1 ratio. The study is divided into a screening phase, a double-blind treatment phase, a double-blind post-treatment and follow-up phase from hospital discharge through Day 30. Day 0 is the day of study drug (levosimendan or matching placebo) initiation. All randomly assigned subjects are followed for 90 days, including subjects who were randomly assigned to treatment but not treated.\nIn the double-blind treatment phase, every attempt is made to start treatment with study drug as soon as possible prior to surgery. However, in all cases study drug is initiated after arterial line insertion and before skin incision. If a Swan-Ganz catheter is planned, it is preferable to insert it prior to study drug initiation. Study drug is administered as described below. Subjects who were randomly assigned to treatment but not treated will be followed (a) through Day 5 for perioperative MI and the need for IABP/LVAD/ECMO, (b) through postoperative […] for postoperative MI (Day 6-10) and postoperative dialysis, and (c) the occurrence of all-cause mortality through Day 90. All subjects may receive additional standard of care medications including inotropes, vasopressors, vasopressin, antiarrhythmics, diuretics, nitrates, and/or nitric oxide as needed. Due to the potential hypotensive effects of the study drug, the concomitant use of vasodilatory drugs should be used with caution.\nSubjects are assigned to 1 of 2 treatment groups (levosimendan 0.2 μg/kg/min for first hour, followed by 0.1 μg/kg/min for the next 23 hours or matching placebo) in a 1:1 ratio based on a computer-generated randomization schedule prepared before the start of the study by an independent statistical group not otherwise involved in the conduct or analysis of the study.\nThe concentration of the diluted infusion is about 50 μg/mL in 5% dextrose (12.5 mg/255 mL in a 250 mL bag; 25 mg/510 mL, 2 vials in a 500 mL bag). The i.v. tubing is primed to fill the volume to the i.v. entry site before starting the infusion. The diluted infusion is administered intravenously by a peripheral or central route. No other treatments are administered via the same line, and no bolus of study drug is administered. Study drug is infused as a continuous infusion of 0.2 μg/kg/min over the first 60 minutes. After 1 hour, the flow rate is decreased to a continuous infusion of 0.1 μg/kg/min. This dose of study drug is continued for the next 23 hours. On completion of the 24-hour infusion period, the study drug infusion is switched off abruptly.\nAll-cause mortality data (e.g., the cause and date of death) is collected for all subjects up to Day 30 (+5). A follow-up call documents mortality between Day 30 visit and Day 90. […]"}, "[3]": {"settings": "through Day 5, same 24-hour infusion regimen"}}, "data": [{"smiles": "C[C@@H]1CC(=O)NN=C1c1ccc(N)cc1", "note": "[OR-1855]", "values": [{"measurement": "formation of the metabolite", "setting": "[1]", "result": "delayed"}]}, {"smiles": "CC(=O)Nc1ccc(C2=NNC(=O)C[C@H]2C)cc1", "note": "[OR-1896]", "values": [{"measurement": "time at which maximum concentrations are seen", "setting": "[1]; after starting a 24-hour infusion, heart failure patients", "result": "2 to 4", "unit": "days"}, {"measurement": "elimination half-life", "setting": "[1]; heart failure patients", "result": "70 to 80", "unit": "h"}, {"measurement": "formation of the metabolite", "setting": "[1]", "result": "delayed"}]}, {"smiles": "CC1CC(=O)NN=C1c1ccc(NN=C(C#N)C#N)cc1", "note": "(single isomer, unassigned; (-)) [levosimendan, (−)-enantiomer of [[4-(1,4,5,6-tetrahydro-4-methyl-6-oxo-3-pyridazinyl)phenyl]hydrazono]prop anedinitrile]", "values": [{"measurement": "rate of all-cause death at Day 30 as compared to placebo", "setting": "[2]; Day 30, same 24-hour infusion regimen", "result": "smaller"}, {"measurement": "peri- and postoperative morbidity and mortality as compared to placebo", "setting": "[2]; levosimendan i.v. 0.2 μg/kg/min for first hour, then 0.1 μg/kg/min for 23 hours, started before skin incision, plus standard care", "result": "reduces"}, {"measurement": "rate of perioperative MI as compared to placebo", "setting": "[2]; [3]", "result": "smaller"}, {"measurement": "use of mechanical assist (IABP, LVAD, or ECMO) as compared to placebo", "setting": "[2]; [3]", "result": "reduced"}, {"measurement": "need for dialysis as compared to placebo", "setting": "[2]; through Day 30, same 24-hour infusion regimen", "result": "lesser"}, {"measurement": "share of total dose metabolised by the minor pathway (reduction in the intestine to OR-1855)", "setting": "[1]; of the total levosimendan dose", "result": "approximately 6%"}]}]}
